Reference: patent publication US20160030367A1, “Methods and Compositions for Preventing Metastasis and for Improving the Survival Time” (INSERM (INSTITUT NATIONAL DE LA SANTÉ ET DE LA RECHERCHE …, priority 2013, published 2016)
Starred links: 1 amine or outer side, 2 acyl side, 3 side chain; linkers in the order of their positions; H or OH if unused. Positions of bridges follow the written chain, without caps; N, C: chain ends. Non-standard residues stand in square brackets, D forms with d. Residues, ends and D or L forms follow the SMILES beside them. Chains are numbered I, II in the order given. Actinocin(9to1) = Cc1c2oc3c(C)ccc(C(=O)[*:1])c3nc-2c(C(=O)[*:2])c(N)c1=O; NMeV = CN[C@H](C(=O)O)C(C)C; Sar = CNCC(=O)O

Columns and labels:
1205Lu melanoma cells [1] = assay: Invasion assay in Matrigel-coated Boyden chambers; format: cell-based, human; conditions: for cell invasion, dose dependence: indicated concentrations
Experimental: (§1) Boyden chambers (8.0-μm pores, Transwell, Corning, Inc.) were coated with 1 mg/ml Matrigel® (BD Biosciences) and were placed into 24-well chambers containing medium supplemented with 10% FCS. The cells were resuspended in FCS-starved medium, loaded into the top chamber. […] Results represent the average of triplicate samples from three independent experiments.

A375 melanoma cells [2] = assay: Invasion assay in Matrigel-coated Boyden chambers; format: cell-based; conditions: 24 h; for cell invasion, dose dependence: indicated concentrations
Experimental: as §1

p53 = assay: p53-dependent luciferase reporter assay (PG13-Luc) in melanoma cells; format: cell-based; conditions: positive control
Experimental: Melanoma cells were seeded in 24-well dishes, and transient transfections were performed the following day using 2 μl Lipofectamine (Gibco-BRL, Eragny, France) and 0.3 mg of PG13-Luc, a p53-dependent firefly luciferase reporter gene in a 200-ml final volume. pCMVβGal plasmid was cotransfected to control the variability of transfection efficiency in the reporter assays. […] At 24 hours after stimulation, cells were harvested in 50 μl of lysis buffer and soluble extracts assayed for luciferase and β-galactosidase activities. All transfections were repeated several times using different plasmid preparations. Luciferase assays were carried out exactly as described (17).

WM9 melanoma cells = assay: Three-dimensional spheroid invasion into collagen; format: cell-based
Experimental: Melanoma spheroids were prepared using the liquid overlay method. Briefly, 500 μL of melanoma cells (20000/ml) were added to a 24-well plate coated with 1.5% agar (Difco, Sparks, Md.). Plates were left to incubate for 72 hours, by which time cells had organized into three-dimensional spheroids. Spheroids were then harvested using a P1000 pipette. The medium was removed and the spheroids were implanted into a gel of bovine collagen I containing MEM (Invitrogen). Normal melanoma medium was overlaid on top of the solidified collagen. After different time, pictures of the invading spheroids were taken using a Zeiss microscope.

[3] = test system: 1205Lu melanoma cells expressing luciferase; assay: Lung metastasis model, bioluminescence, nude mice; format: in vivo
Experimental: 1205Lu cells stably transfected with a vector encoding luciferase cells come from the team of Dr. Tartare-Deckert. A total of 1×10^6/150 μl PBS 1205Lu-Luc cells were injected via the tail vein of nude mice (Harlan Laboratories). […] To perform pulmonary extravasation analysis, 1.5×10^6 1205Lu cells were labelled for 1 h with CellTracker™ Green (Invitrogen) and injected via the tail vein of nude mice.

MMP-2 = assay: Type I collagen substrate zymography, 1205Lu culture media; format: cell-based, human
Experimental: (§2) The culture media from 1205Lu melanoma cells was concentrated in centrifugal filter unit and loaded on 10% SDS-polyacrylamide gels containing 1 mg/ml type I collagen (BD Biosciences). To estimated the protein concentration, 1205Lu melanoma cells were lysed in a buffer containing 1% Triton X-100, 150 mM NaCl, and 20 mM Tris, pH 7.4, supplemented with a protease inhibitor mixture (Complete EDTA-free, Roche Molecular Biochemicals) at 4° C. under agitation for 30 min. Lysates were clarified by brief spinning, and protein concentration was evaluated by bicinchoninic acid technique (BCA protein assay kit, Pierce). Following electrophoresis, proteins were renatured by incubating gels in 2.5% Triton X-100 for 2 h at 37° C. Gels were then washed three times in distilled water and incubated in substrate buffer (50 mM Tris, pH 7.4, and 1 mM CaCl2) at 37° C. for 24 h with gentle shaking Gels were stained with 0.1% Coomassie Blue R-250 (Sigma) and destained in 7% acetic acid. Enzymatic activities appear as cleared bands in a dark background.

MMP-9 = assay: as above; format: cell-based, human
Experimental: as §2

[4] = test system: melanoma cells freshly isolated from patients; assay: Invasion assay in Matrigel-coated Boyden chambers; format: cell-based, human; conditions: 10 mM, 24 h
Experimental: Different cancer cell lines were purchased from American Tissue Culture Collection (Molsheim, France). Cells were grown in RPMI 1640 (A375, WM9, SKMel28 and LNCap) or in DMEM medium (1205Lu, Mel501, Mewo and PC3) supplemented with 10% FCS and penicillin/streptomycin (100 U/ml/[…]) at 37° C. and 5% CO2. Patient melanoma cells were prepared as described (13). Briefly, biopsy was dissected and digested for 1-2 h with collagenase A (0.33 U/ml), dispase (0.85 U/ml) and Dnase I (144 U/ml) with rapid shaking at 37° C. Large debris were removed by filtration through a […] cell strainer. Viable cells were obtained by Ficoll gradient centrifugation.
Boyden chambers (8.0-μm pores, Transwell, Corning, Inc.) were coated with 1 mg/ml Matrigel® (BD Biosciences) and were placed into 24-well chambers containing medium supplemented with 10% FCS. The cells were resuspended in FCS-starved medium, loaded into the top chamber. 5 h later, cells adherent to the underside of the filters were fixed with 4% PFA and stained with 0.4% crystal violet, and five random fields at 20× magnification were counted. Results represent the average of triplicate samples from three independent experiments.

[5] = test system: Slug and N-cadherin in Mewo cells; assay: Western blot in Mewo cells infected with Adp53; format: cell-based; conditions: re-expression of WT p53 by adenovirus infection
Experimental: (§3) Protein were extracted in buffer containing TRIS-HCl pH7.5 50 mM, NaCl 15 mM, Triton X-100 1% and protease and phosphatase inhibitor 1X. Briefly, cell lysates (30 μg) were separated by SDS-PAGE, transferred onto a PVDF membrane (Millipore, Molsheim, France) and then exposed to the appropriate antibodies. Proteins were visualized with the ECL system from Amersham (Arlington, Heights, Ill., USA). The western blots shown are representative of at least 3 independent experiments.

1205Lu melanoma cells [6] = assay: Migration assay in Boyden chambers; format: cell-based, human; conditions: after 24 hours
Text: (§4) Boyden chambers (8.0-μm pores, Transwell, Corning, Inc.) were placed into 24-well chambers containing medium supplemented with 10% FCS. The cells were resuspended in FCS-starved medium, loaded into the top chamber. […] Results represent the average of triplicate samples from three independent experiments.

1205Lu melanoma cells [7] = assay: Pulmonary extravasation model in nude mice; conditions: cells treated 24 h with 10 mM before tail vein injection; lungs after 24 h
AMPK = assay: Western blot in 1205Lu cells infected with Ad AMPK-DN or Ad control; format: cell-based, human
Experimental: Adenoviruses encoding a dominant negative form (Ad AMPK-DN) of subunits α1 and α2 of AMPK were a generous gift of Dr. Foufelle (INSERM, UMR-S 872, Paris, France). An adenovirus of which the expression cassette contains the major late promoter with no exogenous gene was used as control (Ad control). Adenoviruses were propagated in human embryonic kidney 293 cells and stored at −80° C.
as §3

total MMP activity = assay: Matrix metalloproteinase (MMP) activity measurement, fluorogenic substrate, culture media of 1205Lu cells; format: cell-based, human; conditions: 10 mM, 24 h
Experimental: The culture media from stimulated cells were harvested and incubated in a 96-well plate with 0.2 mM of NH2-RA-Dpa-LGLP-AMC as a substrate for various times at 37° C. MMP activity was measured in quadruplicate by quantifying the emission at 460 nm (excitation at 390 nm) in the presence or absence of 10 μM CP471474. The enzyme activities were expressed in arbitrary units per mg of protein.

[8] = test system: Fibronectin, N-Cadherin, Vimentin, Sparc, Slug and Snail in 1205Lu melanoma cells; assay: Western blot of EMT markers; format: cell-based, human
Experimental: as §3

melanomas cells = conditions: long term treatment of 96 hours; cited from earlier work
A375 melanoma cells [9] = assay: Migration assay in Boyden chambers; format: cell-based; conditions: after 24 hours
Text: as §4

A375 melanoma cells [10] = assay: Wound healing assay; format: cell-based
1205Lu melanoma cells [11] = assay: Wound healing assay; format: cell-based, human
[12] = cells transfected with siRNA against p53

Oc1ccc(/C=C/c2cc(O)cc(O)c2)cc1 [resveratrol, 3,5,4′-trihydroxy-trans-stilbene]
cell invasion, dose dependence (1205Lu melanoma cells [1]; 24 h): decreases cell invasion in dose dependent manner
cell invasion, dose dependence (A375 melanoma cells [2]): decreases cell invasion in dose dependent manner

[H]/N=C(/N)N/C(=N/[H])NCCc1ccccc1 [phenformin]
cell invasion, dose dependence (1205Lu melanoma cells [1]; 24 h): decreases cell invasion in dose dependent manner
cell invasion, dose dependence (A375 melanoma cells [2]): decreases cell invasion in dose dependent manner

Cc1c2oc3c(C)ccc(C(=O)N[C@@H]4C(=O)N[C@H](C(C)C)C(=O)N5CCC[C@H]5C(=O)N(C)CC(=O)N(C)[C@@H](C(C)C)C(=O)O[C@@H]4C)c3nc-2c(C(=O)N[C@@H]2C(=O)N[C@H](C(C)C)C(=O)N3CCC[C@H]3C(=O)N(C)CC(=O)N(C)[C@@H](C(C)C)C(=O)O[C@@H]2C)c(N)c1=O [Actinomycin D] (I: T[dV]P[Sar][NMeV] / II: T[dV]P[Sar][NMeV]; ester I:1-I:C, II:1-II:C; linker I:N-II:N via Actinocin(9to1))
increase of p53 promoter activity (p53): comparable to metformin 10 mM

NC(=O)c1ncn([C@@H]2O[C@H](CO)[C@@H](O)[C@H]2O)c1N [AICAR, 5-aminoimidazole-4-carboxamide-1-β-D-ribofuranoside]
cell invasion, dose dependence (1205Lu melanoma cells [1]; 24 h): decreases cell invasion in dose dependent manner
cell invasion, dose dependence (A375 melanoma cells [2]): decreases cell invasion in dose dependent manner

CC(C)[C@H](NC(=O)c1ccc2ccccc2n1)C(=O)N[C@@H](CC(=O)O)C(=O)COc1c(F)cccc1F [QVD]
cell invasion into collagen (WM9 melanoma cells; spheroids embedded in collagen): contrary to QVD alone, association of QVD with metformin block invasion

CN(C)C(=N)N=C(N)N [metformin]
increase in bioluminescence intensity in lungs of vehicle-treated mice compared to metformin-treated mice ([3]; 7 days after cell injection, intraperitoneal, 2 mg/mouse/day): 3 fold
bioluminescence intensity in lungs ([3]; after 39 day, intraperitoneal, 2 mg/mouse/day): very weak
Slug staining in sections of lung tumors ([3]; immunofluorescent staining, vs vehicle): significant decrease in Slug staining
MMP-2 activity (MMP-2; 5 mM): important diminution
decrease of MMP-2 activity (MMP-2; 10 mM): 80%
MMP-9 activity (MMP-9; 5 mM): important diminution
decrease of MMP-9 activity (MMP-9; 10 mM): 45%
cell invasion into collagen (WM9 melanoma cells; in presence of apoptosis inhibitor QVD): block invasion
cell invasion into collagen (WM9 melanoma cells; spheroids embedded in collagen): significantly reduced cell invasion into collagen
cell invasion [4]: significant inhibition of cell invasion
decrease in Slug and N-cadherin expressions [5]: restored
cell migration (1205Lu melanoma cells [6]): do not inhibit migration
micro-metastases in the lungs (extravasation) (1205Lu melanoma cells [7]): much more micro-metastases in the lungs than 1205Lu cells treated by metformin
metformin-stimulated phosphorylation of Acetyl-CoA carboxylase (ACC) (AMPK; cells infected by AdAMPK DN α1 and α2): abolished
Slug and SPARC expression (AMPK; cells infected with Ad control): inhibited
Slug and SPARC expression (AMPK; expression of AMPK DN constructs): abrogates these inhibitory effects
decrease of total MMP activities (total MMP activity): approximately 30%
cell invasion, dose dependence (1205Lu melanoma cells [1]; 24 h): decreases cell invasion in dose dependent manner
inhibition at 10000 µM (1205Lu melanoma cells [1]; Homo sapiens, 1205Lu, 10 mM, 24 h, read-out: inhibition of cell invasion): 95%
inhibition of invasion (1205Lu melanoma cells [1]; [12]): prevent downregulation of Slug and inhibition of invasion
inhibition of invasion (1205Lu melanoma cells [1]; in presence of dominant negative forms of AMPK): abolished
N-cadherin expression ([8]; 24 h): decrease
SPARC expression ([8]; 24 h): inhibited in a dose dependent manner
Slug level ([8]; 24 h): decrease
Snail level ([8]; 24 h): also decrease
fibronectin expression ([8]; 24 h): decrease
vimentin expression ([8]; 24 h): not modified
N-cadherin expression ([8]; 24 h, listed as Metformin): inhibited in a dose dependent manner
Slug level ([8]; 24 h, listed as Metformin): also decrease
fibronectin expression ([8]; 24 h, listed as Metformin): inhibited in a dose dependent manner
Slug downregulation [8, 12]: prevent downregulation of Slug
cell death (melanomas cells): induced cell death of melanomas cells
cell migration (A375 melanoma cells [9]): do not inhibit migration
cell invasion, dose dependence (A375 melanoma cells [2]): decreases cell invasion in dose dependent manner
inhibition at 10000 µM (A375 melanoma cells [2]; Homo sapiens, A-375, 10 mM, read-out: inhibition of cell invasion): 90%
cell migration (wound healing) (A375 melanoma cells [10]): Results were confirmed
cell migration (wound healing) (1205Lu melanoma cells [11]): Results were confirmed
